Key:
Assay type in all cases: in vivo, rat
[1] = tested on: rats with spinal nerve ligature (Chung neuropathic pain model); test: Chung spinal nerve ligation (L5 and L6) neuropathic pain model, tactile stimulation with electronic Von Frey probe (Example 2); conditions: for Force Inducing Paw Withdrawal (g) Lesioned Paw / Force Inducing Paw Withdrawal (g) Non-lesioned Paw: hypersensitivity test after 8 days of twice daily administration
From the text: (§1) The Chung neuropathic pain model (Kim and Chung, Pain, 50: 355-363, 1992), employs spinal nerve ligation (SNL) in a rat. Tight ligature of spinal nerves in a rat is associated with hyperalgesia, allodynia and spontaneous pain. Antihyperalgesics reduce these chronic signs of pain hypersensitivity. Thus, the Chung model permits testing of the antihyperalgesic activity of compounds in rats with neuropathic pain. The Chung model constitutes a model for peripheral neuropathic pain in humans, and was employed as follows.
(§2) Male Rj: Wistar (Han) rats, weighing 264-369 g at the beginning of the experiment, were obtained from Elevage Janvier, 53940 Le Genest-Saint-Isle, France. The rats were acclimatized to laboratory conditions for at least 5 days before the surgery phase of the experiment. The rats were housed in groups of five in macrolon cages (41×25×14 cm) on wood litter (Litalabo—SPPS, 95100 Argenteuil, France) with free access to food (code 113—SAFE, 91360 Epinay-sur-Orge, France) and water until tested. The animal houses were maintained under artificial lighting (12 hours) between 7:00 AM and 7:00 PM in a controlled ambient temperature of 21±3° C., and with relative humidity maintained at 40-70%.
(§3) Rats (264-369 g) were anesthetized with sodium pentobarbital (50 mg/kg i.p.), and an incision at the L4-S2 level was made to expose the left L5 and L6 spinal nerves. A ligature was tied tightly around each nerve. The wound was then sutured. The rats received an i.m. injection of 50,000 IU penicillin G and were allowed to recover. At least 2 weeks after the surgery, when the chronic state was fully installed, rats were submitted consecutively to tactile and thermal stimulation of both the non-lesioned and the lesioned hindpaws.
(§4) Doses of OPC-14523 were prepared in stock solutions (weight per volume, W/V), then in dilutions (volume per volume, V/V), as appropriate. The compound was dispersed in 0.5% tragacanth in distilled water. Morphine was dissolved in physiological saline as a reference standard for treatment of pain. The solutions for the test and reference substances were prepared fresh on the day of the experiment.
(§5) The vehicle, OPC-14523, and reference (morphine) compound were each administered in a volume of 5 ml/kg body weight. The doses of OPC-14523 were expressed in mg of substance per kg body weight and administered orally (p.o.). The vehicle control was also administered orally. The dose of morphine was expressed in mg of hydrochloride salt per kg body weight and administered i.p.
(§6) Each animal was tested at 30 minutes, 1 hour, 2 hours and 4 hours after the administration of a substance. Testing occurred in the morning.
(§7) To evaluate chronic drug administration and hypersensitivity induction, animals received a second substance treatment in the afternoon, after acute testing. The animals then received twice-daily substance treatment for an additional 9 days. To test for induction of hypersensitivity, the animals were tested, on the ninth day, 30 minutes before the first substance administration in the morning. The effect of chronic administration was tested on the tenth day 30 minutes, 1 hour, 2 hours and 4 hours after the administration of the substance in the morning.
(§8) For tactile stimulation, the animal was placed under an inverted Plexiglas® box (17×11×14 cm) on a grid floor. The tip of an electronic Von Frey probe (Bioseb, Model 1610, Chaville, France) was applied with increasing pressure to the non-lesioned hindpaw or the lesioned hindpaw. The force required to induce paw withdrawal was automatically recorded. This procedure was carried out three times for each paw, and the mean force per paw was calculated to provide basic scores per animal.
Prior to receiving drug treatment, all animals were submitted to tactile stimulation and assigned to treatment groups, matched on the basis of their pain response. Each treatment group consisted of eight rats. The testing was performed blind. […]

[2] = tested on: rats with spinal nerve ligature (Chung neuropathic pain model); test: Chung spinal nerve ligation (L5 and L6) neuropathic pain model, thermal stimulation (Example 2); conditions: for Paw Withdrawal Latency (s) Lesioned Paw / Paw Withdrawal Latency (s) Non-lesioned Paw: hypersensitivity test after 8 days of twice daily administration
From the text: as §1, §2, §3, §4, §5, §6, §7
An apparatus (Ugo Basile, Product reference: 7371, Comerio, Italy) consisted of six individual Plexiglas® boxes (17×11×14 cm) placed upon an elevated glass floor. A rat was placed in the box and left free to habituate for 10 minutes. Then, a mobile infrared radiant source was focused under the non-lesioned and lesioned hindpaws. The paw-withdrawal latencies were automatically recorded. Paw withdrawal interrupts the reflected radiation and switches off the counter and the light source. In order to prevent tissue damage, the test was terminated after 45 seconds if no reaction was noted.
Prior to receiving drug treatment, all animals were submitted to tactile stimulation and assigned to treatment groups, matched on the basis of their pain response. […]

[3] = tested on: rats with spinal nerve ligature (Chung neuropathic pain model); test: Chung neuropathic pain model, tactile stimulation, second experiment (Example 3); conditions: acute; for effect on force inducing paw withdrawal: p.o.
Experimental: as §8
(§9) The rats used in this experiment were the same rats used in Example 2. The materials and methods for this experiment were identical to those for Example 2 with the following exceptions: there was a 1-week washout between the two experiments, and the rats weighed 290-403 g at the start of this experiment. Prior to receiving drug treatment, all animals were submitted to tactile stimulation and assigned to treatment groups matched on the basis of their pain response. No account was taken of the treatment administered during the first experiment in assigning animals to treatment groups for this experiment.
(§10) All of the substances were administered orally. Morphine, dissolved in distilled water, was administered at 128 mg/kg dose p.o. Rats were tested 30 minutes, 1 hour, 2 hours, and 4 hours after administration of the substances.

[4] = tested on: rats with spinal nerve ligature (Chung neuropathic pain model); test: Chung neuropathic pain model, cold allodynia on cold plate (Example 3); conditions: cold plate
From the text: as §9, §10
Behavioral testing was carried out by measuring cold allodynia using an apparatus consisting of a cold plate maintained at 4±1° C. Rats were individually placed on the cold plate for a period of 5 minutes. The latency to the first paw withdrawal response and the number and total duration of withdrawal responses in 5 minutes were recorded for both the lesioned and the non-lesioned hindpaws.

- induction of hypersensitivity ([1]; repeated administration, tactile and thermal stimulation): does not induce hypersensitivity
Compound: COc1cccc2c1CCC(=O)N2CCCN1CCN(c2cccc(Cl)c2)CC1 [OPC-14523, 1-[3-[4-(3-chlorophenyl)-1-piperazinyl]propyl]-5-methoxy-3,4-dihydro-2(1H)-quinolone]
- change of force inducing paw withdrawal vs vehicle ([1]; acute, 100 mg/kg p.o., lesioned paw, 1 hour): 107%
- effect on force inducing paw withdrawal ([1]; acute, 100 mg/kg p.o., lesioned paw, 2 hours): tended to increase
- change of force inducing paw withdrawal vs vehicle ([1]; acute, 100 mg/kg p.o., non-lesioned paw, 4 hours, p<0.01): −27%
- effect on force inducing paw withdrawal ([1]; acute, p.o., other doses or time points): no significant effects
- effect on force inducing paw withdrawal ([1]; chronic, twice daily, after 10 days, p.o., lesioned or non-lesioned paw): did not have clear effects
- Force Inducing Paw Withdrawal (g) Lesioned Paw ([1]; 10 mg/kg p.o.): 17.6 (NS) g
- Force Inducing Paw Withdrawal (g) Non-lesioned Paw ([1]; 10 mg/kg p.o.): 72.9 (NS) g
- Force Inducing Paw Withdrawal (g) Lesioned Paw ([1]; 30 mg/kg p.o.): 15.1 (NS) g
- Force Inducing Paw Withdrawal (g) Non-lesioned Paw ([1]; 30 mg/kg p.o.): 83.5 (NS) g
- Force Inducing Paw Withdrawal (g) Lesioned Paw ([1]; 100 mg/kg p.o.): 16.2 (NS) g
- Force Inducing Paw Withdrawal (g) Non-lesioned Paw ([1]; 100 mg/kg p.o.): 78.1 (NS) g
- effect on force inducing paw withdrawal vs vehicle control ([1]; hypersensitivity test, repeated treatment at three different doses, lesioned or non-lesioned paw): no significant effects
- change of paw-withdrawal latency vs vehicle ([2]; acute, 10 mg/kg p.o., 30 minutes, NS): −57%
- change of paw-withdrawal latency vs vehicle ([2]; acute, 10 mg/kg p.o., lesioned paw, 4 hours): +190%
- change of paw-withdrawal latency vs vehicle ([2]; acute, 30 mg/kg p.o., lesioned paw, 4 hours): 259%
- change of paw-withdrawal latency vs vehicle ([2]; acute, 100 mg/kg p.o., lesioned paw, 4 hours): 270%
- change of paw-withdrawal latency vs vehicle ([2]; acute, 100 mg/kg p.o., non-lesioned paw, p<0.05): −27%
- change of paw-withdrawal latency vs vehicle ([2]; chronic, 30 mg/kg, lesioned paw, 4 hours, p<0.05): +62%
- effect on paw-withdrawal latency ([2]; chronic, non-lesioned paw): no effect
- Paw Withdrawal Latency (s) Lesioned Paw ([2]; 10 mg/kg p.o.): 4.5 (p < 0.01) s
- Paw Withdrawal Latency (s) Non-lesioned Paw ([2]; 10 mg/kg p.o.): 43.7 (NS) s
- Paw Withdrawal Latency (s) Lesioned Paw ([2]; 30 mg/kg p.o.): 19.9 (NS) s
- Paw Withdrawal Latency (s) Non-lesioned Paw ([2]; 30 mg/kg p.o.): 37 (NS) s
- Paw Withdrawal Latency (s) Lesioned Paw ([2]; 100 mg/kg p.o.): 22.3 (NS) s
- Paw Withdrawal Latency (s) Non-lesioned Paw ([2]; 100 mg/kg p.o.): 39.1 (NS) s
- effect on paw-withdrawal latency vs vehicle control ([2]; hypersensitivity test, lesioned paw at other doses, non-lesioned paw at any dose): No effects
- change of paw-withdrawal latency vs vehicle ([2]; hypersensitivity test, repeated treatment 10 mg/kg p.o., lesioned paw, p<0.01): −67%
- change of force inducing paw withdrawal vs vehicle ([3]; 30 mg/kg p.o., lesioned paw, 30 minutes, p=0.10): +46%
- change of force inducing paw withdrawal vs vehicle ([3]; 30 mg/kg p.o., lesioned paw, 2 hours, p=0.11): +79%
- change of force inducing paw withdrawal vs vehicle ([3]; 100 mg/kg p.o., lesioned paw, 30 minutes, p=0.11): +76%
- effect on force inducing paw withdrawal ([3]; lesioned paw): did not significantly affect
- effect on force inducing paw withdrawal ([3]; non-lesioned paw): no clear effects
- decrease of number of withdrawal responses ([4]; 30 mg/kg p.o., lesioned paw, 30 minutes, p<0.01): 50%
- change of number of withdrawal responses ([4]; 30 mg/kg p.o., lesioned paw, 4 hours, p<0.05): −48%
- change of total duration of withdrawal responses ([4]; 100 mg/kg p.o., 2 hours, p<0.05): −95%
- change of latency to paw withdrawal ([4]; 100 mg/kg p.o., lesioned paw, 30 minutes, p<0.01): +140%
- decrease of number of withdrawal responses ([4]; 100 mg/kg p.o., lesioned paw, 30 minutes, p<0.05): 64%
- change of latency to paw withdrawal ([4]; 100 mg/kg p.o., lesioned paw, 1 hour, p=0.24): +183%

Reference: patent US20070142396A1, “Treatment of pain with 1-[3-[4-(3-chlorophenyl)-1-piperazinyl]propyl]-5-methoxy-3,4-dihydro-2(1H)-quinolone or salt thereof” (Vela Pharmaceuticals, Inc., priority 2005, published 2007)
